Literature values in patent publication US12201732B2, “Transdermal patches for hangover minimization and/or recocery, and/or sleep improvement” (GameChanger Patch Co., priority 2020, dated 2025).

Tests used:
[1] = recent study
[2] = oral supplementation

Row | share metabolized by the human stomach in the first pass [2] [%] | SMILES | effect on hangover [1]
1 | – | N[C@@H](CS)C(=O)O [L-cysteine] | mitigate hangover effects
2 | ≥ 90 | N[C@@H](CCC(=O)N[C@@H](CS)C(=O)NCC(=O)O)C(=O)O [glutathione] | –
